Measurements published in the supplement of paper PMC10307832.

Columns and labels:
Experiment in all cases: relative viability (nuclei count vs DMSO), 5 days (fraction); higher = more cells survive
A549 = test system: A549
Procedure, shortened: (§1)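 A single step with final 0.05% Triton X-100, 1% formaldehyde and 1 ug/ml Hoechst fixed the cells and stained nuclei 5 days after treatment. Lung cancer cell lines in 1536-well plates had been treated by pin tool the day after seeding with one drug alone or a fixed anchor-drug dose plus five library-drug doses (not always all listed) in √10 steps, and nuclei were counted on 4× images. Relative viability is the ratio of nuclei in treated wells to nuclei in vehicle wells, taken as the median of duplicate plates.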

IA-LM = test system: IA-LM
Procedure, shortened: as §1

NCI-H1299 = test system: NCI-H1299
Procedure, shortened: as §1

NCI-H1703 = test system: NCI-H1703
Procedure, shortened: as §1

NCI-H1648 = test system: NCI-H1648
Procedure, shortened: as §1

NCI-H1623 = test system: NCI-H1623
Procedure, shortened: as §1

SMILES	relative viability (A549; first compound 0.08 µM)	relative viability (A549; first compound 0.8 µM)	relative viability (A549; first compound 2.53 µM)	relative viability (A549; first compound 8 µM)	relative viability (IA-LM; first compound 0.08 µM)	relative viability (IA-LM; first compound 0.8 µM)	relative viability (IA-LM; first compound 2.53 µM)	relative viability (IA-LM; first compound 8 µM)	relative viability (NCI-H1299; first compound 0.08 µM)	relative viability (NCI-H1299; first compound 0.8 µM)	relative viability (NCI-H1299; first compound 2.53 µM)	relative viability (NCI-H1299; first compound 8 µM)	relative viability (NCI-H1703; first compound 0.08 µM)	relative viability (NCI-H1703; first compound 0.8 µM)	relative viability (NCI-H1703; first compound 2.53 µM)	relative viability (NCI-H1703; first compound 8 µM)	relative viability (NCI-H1648; first compound 0.08 µM)	relative viability (NCI-H1648; first compound 0.8 µM)	relative viability (NCI-H1648; first compound 2.53 µM)	relative viability (NCI-H1648; first compound 8 µM)	relative viability (NCI-H1623; first compound 0.08 µM)	relative viability (NCI-H1623; first compound 0.8 µM)	relative viability (NCI-H1623; first compound 2.53 µM)	relative viability (NCI-H1623; first compound 8 µM)
CCCCCCCCCCCC1=C(O)C(=O)C=C(O)C1=O [Embelin] + CC1(C)CCC(c2ccc(Cl)cc2)=C(CN2CCN(c3ccc(C(=O)NS(=O)(=O)c4ccc(N[C@H](CCN5CCOCC5)CSc5ccccc5)c(S(=O)(=O)C(F)(F)F)c4)cc3)CC2)C1 [Navitoclax] (partner 0.5 µM)	1.21	1.35	1.21	1.3	1.03	0.87	0.92	0.305	1.09	1.1	1.09	1.02	1.29	1.26	1.06	1.06	–	–	–	–	–	–	–	–
CCCCCCCCCCCC1=C(O)C(=O)C=C(O)C1=O [Embelin] + CC(=O)Nc1cccc(-n2c(=O)n(C3CC3)c(=O)c3c(Nc4ccc(I)cc4F)n(C)c(=O)c(C)c32)c1 [Trametinib] (partner 0.02 µM)	–	–	–	–	–	–	–	–	–	–	–	–	–	–	–	–	0.53	0.572	0.524	0.596	–	–	–	–
CCCCCCCCCCCC1=C(O)C(=O)C=C(O)C1=O [Embelin] + CC(=O)c1c(C)c2cnc(Nc3ccc(N4CCNCC4)cn3)nc2n(C2CCCC2)c1=O [Palbociclib] (partner 0.5 µM)	–	–	–	–	–	–	–	–	–	–	–	–	–	–	–	–	0.205	0.23	0.241	0.297	–	–	–	–
CCCCCCCCCCCC1=C(O)C(=O)C=C(O)C1=O [Embelin] + CC(C)C[C@H](NC(=O)[C@H](Cc1ccccc1)NC(=O)c1cnccn1)B(O)O [Bortezomib] (partner 0.002 µM)	–	–	–	–	0.769	0.904	0.913	0.381	1.06	1.05	1.07	1.03	0.26	0.549	0.361	0.236	–	–	–	–	–	–	–	–
CCCCCCCCCCCC1=C(O)C(=O)C=C(O)C1=O [Embelin] + CCNC(=O)c1noc(-c2cc(C(C)C)c(O)cc2O)c1-c1ccc(CN2CCOCC2)cc1 [Luminespib] (partner 0.01 µM)	–	–	–	–	–	–	–	–	–	–	–	–	–	–	–	–	–	–	–	–	0.577	0.478	0.484	0.452
CCCCCCCCCCCC1=C(O)C(=O)C=C(O)C1=O [Embelin] + COc1cc2c(Oc3ccc(NC(=O)C4(C(=O)Nc5ccc(F)cc5)CC4)cc3F)ccnc2cc1OCCCN1CCOCC1 [Foretinib] (partner 0.25 µM)	0.906	1.05	1.09	1.04	1.05	1.17	1.16	1.16	1.08	1.11	1.14	1.13	0.413	0.404	0.392	0.314	–	–	–	–	0.889	0.872	0.876	0.853
CCCCCCCCCCCC1=C(O)C(=O)C=C(O)C1=O [Embelin] + COc1cccc2cc(-c3nc([C@H]4CC[C@H](C(=O)O)CC4)n4ncnc(N)c34)[nH]c12 [OSI-027] (partner 0.5 µM)	–	–	–	–	–	–	–	–	–	–	–	–	–	–	–	–	0.263	0.293	0.248	0.278	0.486	0.41	0.468	0.494
CCCCCCCCCCCC1=C(O)C(=O)C=C(O)C1=O [Embelin] + CS(=O)(=O)CCNCc1ccc(-c2ccc3ncnc(Nc4ccc(OCc5cccc(F)c5)c(Cl)c4)c3c2)o1 [Lapatinib] (partner 2 µM)	0.923	1.12	1.12	1.1	0.769	0.894	0.789	0.645	0.943	0.971	0.991	0.967	1.2	1.6	1.02	1.23	–	–	–	–	–	–	–	–
CCCCCCCCCCCC1=C(O)C(=O)C=C(O)C1=O [Embelin] + CS(=O)(=O)N1CCN(Cc2cc3nc(-c4cccc5[nH]ncc45)nc(N4CCOCC4)c3s2)CC1 [Pictilisib] (partner 1 µM)	0.554	0.596	0.53	0.527	0.367	0.326	0.383	0.249	0.873	0.832	0.784	0.887	0.232	0.315	0.241	0.232	–	–	–	–	–	–	–	–
CCCCCCCCCCCC1=C(O)C(=O)C=C(O)C1=O [Embelin] + C[C@@H](Oc1cc(-c2cnn(C3CCNCC3)c2)cnc1N)c1c(Cl)ccc(F)c1Cl [Crizotinib] (partner 1 µM)	0.834	0.81	0.987	0.915	0.718	0.85	0.729	0.743	0.954	1.02	0.963	0.94	0.8	1.17	0.806	0.975	–	–	–	–	–	–	–	–
CCCCCCCCCCCC1=C(O)C(=O)C=C(O)C1=O [Embelin] + C[C@]1(O)C[C@@H](c2nc(-c3ccc4ccc(-c5ccccc5)nc4c3)c3c(N)nccn32)C1 [Linsitinib] (partner 1 µM)	0.546	0.717	0.582	0.456	0.425	0.799	0.536	0.241	0.93	1.04	1.06	0.938	0.983	–	0.634	0.599	–	–	–	–	–	–	–	–
CCCCCCCCCCCC1=C(O)C(=O)C=C(O)C1=O [Embelin] + Cc1cc(Nc2cc(N3CCN(C)CC3)nc(Sc3ccc(NC(=O)C4CC4)cc3)n2)n[nH]1 [Tozasertib] (partner 0.1 µM)	–	–	–	–	–	–	–	–	–	–	–	–	–	–	–	–	0.472	0.627	0.366	0.582	0.44	0.412	0.45	0.423
CCCCCCCCCCCC1=C(O)C(=O)C=C(O)C1=O [Embelin] + Cc1nc(NC(=O)N2CCC[C@H]2C(N)=O)sc1-c1ccnc(C(C)(C)C(F)(F)F)c1 [Alpelisib] (partner 2 µM)	0.901	0.794	0.837	0.728	0.778	0.753	0.839	0.191	1.08	1.07	1.07	1.11	0.428	0.436	0.309	0.238	–	–	–	–	–	–	–	–
CCCCCCCCCCCC1=C(O)C(=O)C=C(O)C1=O [Embelin] + Cc1nc(Nc2ncc(C(=O)Nc3c(C)cccc3Cl)s2)cc(N2CCN(CCO)CC2)n1 [Dasatinib] (partner 0.075 µM)	–	–	–	–	–	–	–	–	–	–	–	–	–	–	–	–	–	–	–	–	0.554	0.542	0.534	0.555
CCCCCCCCCCCC1=C(O)C(=O)C=C(O)C1=O [Embelin] + N=C(N)NC(=N)NCCc1ccccc1 [Phenformin] (partner 250 µM)	0.204	0.167	0.185	0.0745	–	–	–	–	–	–	–	–	–	–	–	–	–	–	–	–	0.601	0.612	0.62	0.602
CCCCCCCCCCCC1=C(O)C(=O)C=C(O)C1=O [Embelin] + NC(=O)Nc1cc(-c2cccc(F)c2)sc1C(=O)N[C@H]1CCCNC1 [AZD7762] (partner 0.2 µM)	–	–	–	–	–	–	–	–	–	–	–	–	0.132	0.166	0.131	0.143	0.598	0.689	0.628	0.709	–	–	–	–
CCCCCCCCCCCC1=C(O)C(=O)C=C(O)C1=O [Embelin] + Nc1nc2[nH]cc(CCc3ccc(C(=O)N[C@@H](CCC(=O)O)C(=O)O)cc3)c2c(=O)[nH]1 [Pemetrexed] (partner 0.2 µM)	–	–	–	–	–	–	–	–	–	–	–	–	–	–	–	–	0.682	0.675	0.776	0.662	–	–	–	–
CCCCCCCCCCCC1=C(O)C(=O)C=C(O)C1=O [Embelin] + Nc1ncn([C@H]2C[C@H](O)[C@@H](CO)O2)c(=O)n1 [Decitabine] (partner 2 µM)	0.303	0.252	0.326	0.277	–	–	–	–	–	–	–	–	–	–	–	–	0.577	0.549	0.548	0.365	–	–	–	–
CCCCCCCCCCCC1=C(O)C(=O)C=C(O)C1=O [Embelin] + O=C(CCCCCCC(=O)Nc1ccccc1)NO [Vorinostat] (partner 1 µM)	–	–	–	–	0.963	1.03	1.2	0.937	–	–	–	–	–	–	–	–	0.464	0.908	0.487	0.699	–	–	–	–
CCCCCCCCCCCC1=C(O)C(=O)C=C(O)C1=O [Embelin] + O=C(c1cc(Cc2n[nH]c(=O)c3ccccc23)ccc1F)N1CCN(C(=O)C2CC2)CC1 [Olaparib] (partner 8 µM)	0.32	0.187	0.424	0.366	0.899	0.894	0.847	0.616	0.987	1.01	0.994	0.987	0.457	0.442	0.388	0.286	1	0.904	1.14	1.21	–	–	–	–
